# Results: US20250186391A1, “ORAL COMPLEMENT FACTOR D INHIBITORS” (BioCryst Pharmaceuticals, Inc., priority 2019, published 2025)
# Biological target: Factor D (Homo sapiens (Human), UniProt P00746)
# Assay: Factor D esterolytic assay
# Type: biochemical
# Settings: Z-Lys-SBzl substrate, 100 mM HEPES, 500 mM NaCl, pH 7.5, 10% DMSO; tested a minimum of three times; read-out: Measured Ki (IC50) Value for Compounds: IC50
# Method in brief: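 Buffer was 100 mM HEPES, 500 mM NaCl, pH 7.5 with 10% DMSO. Compound and Factor D were combined, then Z-Lys-SBzl (1.29 mM) was added either at once or following room-temperature incubation. Rates came from DTNB colour at 405 nm minus 690 nm over 600 s, with percent inhibition giving IC50 over at least three tests.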
# Chain of Factor D (P00746 26-253): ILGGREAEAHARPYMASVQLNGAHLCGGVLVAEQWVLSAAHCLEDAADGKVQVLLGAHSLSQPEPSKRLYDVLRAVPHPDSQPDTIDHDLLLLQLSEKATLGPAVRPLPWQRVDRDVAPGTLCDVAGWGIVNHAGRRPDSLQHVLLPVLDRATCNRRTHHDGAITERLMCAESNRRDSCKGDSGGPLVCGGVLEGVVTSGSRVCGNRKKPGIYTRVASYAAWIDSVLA
row,Compound,IC50 [nM]
1,"C[C@@H]1CN(Cc2cc(-c3cccc(CN)c3)cc3c(COc4ccccc4CC(=O)O)coc23)C[C@H](C)O1 [Compound 208d, 2-(2-((5-(3-(aminomethyl)phenyl)-7-(((2R,6S)-2,6-dimethylmorpholino)methyl)benzofuran-3-yl)methoxy)phenyl)acetic acid]",< 1000
2,"NCc1cccc(-c2ccc3occ(COc4c(N)cccc4CC(=O)O)c3c2)c1 [Compound 90h, 2-(3-amino-2-((5-(3-(aminomethyl)phenyl)benzofuran-3-yl)methoxy)phenyl)acetic acid]",< 1000
3,"NCc1cccc(-c2ccc3occ(COc4cccc(CC(=O)O)c4)c3c2)c1 [Compound 4d, 2-(3-((5-(3-(aminomethyl)phenyl)benzofuran-3-yl)methoxy)phenyl)acetic acid]",1000 to 10000
4,"CCCc1oc2ccc(-c3cccc(CN)c3)cc2c1COc1cc(OC)ccc1CC(=O)O [Compound 284e, 2-(2-((5-(3-(aminomethyl)phenyl)-2-propylbenzofuran-3-yl)methoxy)-4-methoxyphenyl)acetic acid]",< 1000
5,"NCc1cccc(-c2ccc3[nH]cc(C(=O)Nc4ccccc4CC(=O)O)c3n2)c1 [Compound 14c, 2-(2-(5-(3-(aminomethyl)phenyl)-1H-pyrrolo[3,2-b]pyridine-3-carboxamido)phenyl)acetic acid]",< 1000
6,"NCc1cccc(-c2cc(OCc3ccccn3)c3occ(COc4ccccc4CC(=O)O)c3c2)c1 [Compound 195f, 2-(2-((5-(3-(aminomethyl)phenyl)-7-(pyridin-2-ylmethoxy)benzofuran-3-yl)methoxy)phenyl)acetic acid]",< 1000
7,"COc1ccc(CC(=O)O)c(OCc2c(C)oc3ccc(-c4ccnc(CN)c4F)cc23)c1 [Compound 281d, 2-(2-((5-(2-(aminomethyl)-3-fluoropyridin-4-yl)-2-methylbenzofuran-3-yl)methoxy)-4-methoxyphenyl)acetic acid]",< 1000
8,"NCc1cccc(-c2cc(CNCC3CC3)cc3cc(COc4ccccc4CC(=O)O)oc23)c1 [Compound 11d, 2-(2-((7-(3-(aminomethyl)phenyl)-5-(((cyclopropylmethyl)amino)methyl)benzofuran-2-yl)methoxy)phenyl)acetic acid]",< 1000

# Results, then the compound that gave them:
row,IC50 [nM],Compound
1,< 1000,"NCc1cccc(-c2cc(C(F)(F)F)c3occ(COc4ccccc4CC(=O)O)c3c2)c1 [Compound 113g, 2-(2-((5-(3-(aminomethyl)phenyl)-7-(trifluoromethyl)benzofuran-3-yl)methoxy)phenyl)acetic acid]"
2,1000 to 10000,"COc1c(CN)cccc1-c1ccc2c(c1)c(COc1ccccc1CC(=O)O)nn2C(C)C [Compound 325b, 2-(2-((5-(3-(aminomethyl)-2-methoxyphenyl)-1-isopropyl-1H-indazol-3-yl)methoxy)phenyl)acetic acid]"
3,1000 to 10000,"CC(C)n1nc(COc2ccccc2CC(=O)O)c2cc(-c3cccc(N)c3)ccc21 [Compound 321c, 2-(2-((5-(3-aminophenyl)-1-isopropyl-1H-indazol-3-yl)methoxy)phenyl)acetic acid]"
4,< 1000,"COc1ccc(CC(=O)O)c(OCc2nn(C)c3ccc(-c4cccc(CN)c4)cc23)c1 [Compound 185c, 2-(2-((5-(3-(aminomethyl)phenyl)-1-methyl-1H-indazol-3-yl)methoxy)-4-methoxyphenyl)acetic acid]"
5,1000 to 10000,"CCCCC(C(=O)O)c1ccccc1OCc1nn(C(C)C)c2ccc(-c3cccc(CN)c3)cc12 (stereo not drawn) [Compound 312f, 2-(2-((5-(3-(aminomethyl)phenyl)-1-isopropyl-1H-indazol-3-yl)methoxy)phenyl)hexanoic acid]"
6,< 1000,"Cc1ccc(OCc2coc3ccc(-c4cccc(CN)c4)cc23)c(CC(=O)O)c1 [Compound 105d, 2-(2-((5-(3-(aminomethyl)phenyl)benzofuran-3-yl)methoxy)-5-methylphenyl)acetic acid]"
7,< 1000,"NCc1cccc(-c2cc(Cl)c3occ(COc4ccccc4CC(=O)O)c3c2)c1 [Compound 127f, 2-(2-((5-(3-(aminomethyl)phenyl)-7-chlorobenzofuran-3-yl)methoxy)phenyl)acetic acid]"
